For the assay, the target named is T1, BACE enzyme (Homo sapiens, UniProt P56817).
T1 construct: the catalytic domain, appended by a C-terminal poly-histidine tag, is secreted out into the cellular medium; made in house; host or cells: Drosophila melanogaster S2 cells
Kind of assay: BACE enzyme inhibition, fluorescence-quenched peptide substrate MCA-EVNLDAEFK(DNP). The assay is classed as biochemical. Conditions: 50 mM acetate, pH 4.5, 0.25 mg/ml bovine serum albumin, 2.5% DMSO; read-out: Activity Rating (based on IC50 values). The source says: There are a number of methods by which inhibitors of the BACE enzyme can be identified experimentally. The enzyme can be obtained from membrane samples from natural tissues or cultured cells or can be expressed recombinantly in a host cell by well known methods of molecular biology. […] The enzymatic activity and/or ligand binding capability of the enzyme can be assessed within these membrane samples, or the enzyme can be purified to varying extents. As an illustrative example, the nucleic acid sequence encoding the pro and catalytic domains of human BACE can be appended on the 5′ end with an untranslated and signal sequence from the gene for acetylcholinesterase, and on the 3′ end with a sequence encoding a poly-histidine tag. This cDNA can then be expressed in Drosophila melanogaster S2 cells in which the signal and pro sequences of the transcribed/translated protein are removed by cellular proteases and the catalytic domain, appended by a C-terminal poly-histidine tag, is secreted out into the cellular medium. The enzyme can then be purified from the culture medium by nickel affinity chromatography by methods well known to those trained in the art [Mallender, W. et al., (2001) “Characterization of recombinant, soluble beta-secretase from an insect cell expression system.” Mol. Pharmacol. 59: 619-626]. Similar strategies for expressing and purifying various forms of BACE in bacterial, mammalian and other cell types would be known to one skilled in the art.
The enzyme thus obtained can be put in contact with a test compound and with an appropriate substrate on which enzyme-mediated peptide bond hydrolysis is known to occur. The ability of the test compound to diminish the rate of substrate hydrolysis can then be quantified as a measure of inhibition potency. Appropriate substrates can be prepared as peptides, proteins, or chemically modified versions of peptides or proteins, that contain an amino acid sequence that is recognized as a substrate by the enzyme. For example, the amino acid sequence immediately proximal to the beta-cleavage site within Swedish mutant APP is known to be recognized as a substrate for BACE. […] Longer peptide and protein substrates can also be designed by extending the amino acid composition on the N-terminal, the C-terminal, or both ends.
In one known application of (SEQ. ID. NO.:1), X is a 7-methoxycoumarin-4-acetyl (MCA) group and Y is a dinitrophenyl (DNP) group [Marcinkeviciene, J. et al., (2001) “Mechanism of inhibition of beta-site amyloid precursor protein-cleaving enzyme (BACE) by a statine-based peptide.” J. Biol. Chem. 276: 23790-23794]. When this peptide is intact, the natural fluorescence of the MCA group is quenched by its proximity to the DNP group. […] The increase in fluorescence intensity that accompanies enzyme-mediated peptide hydrolysis can be measured as a function of time to quantify the velocity of enzyme catalysis. In a typical assay system the BACE enzyme is diluted into a buffer system composed of 50 mM acetate, pH 4.5 containing 0.25 mg/ml bovine serum albumin. To this is added neat dimethyl sulfoxide (DMSO) or a stock solution of test compound dissolved in DMSO so that the final amount of DMSO in all assays is held constant at 2.5% (v:v). The enzymatic reaction is then initiated by addition of a stock solution of the substrate peptide to a known concentration. The fluorescence increase with time after substrate addition is monitored with an appropriate fluorescence detection instrument, such as a microplate reader or spectrofluorometer. The slope of the signal vs. time plot (progress curve) for samples to which only DMSO was added is taken as a measure of the uninhibited velocity and represents 100% enzymatic activity.

For 20 compounds, IC50 results are on record in patent US7557137B2, “Gamma-lactams as beta-secretase inhibitors” (Bristol-Myers Squibb Company, priority 2002, dated 2009).

T1 sequence (P56817 75-416 limits assumed): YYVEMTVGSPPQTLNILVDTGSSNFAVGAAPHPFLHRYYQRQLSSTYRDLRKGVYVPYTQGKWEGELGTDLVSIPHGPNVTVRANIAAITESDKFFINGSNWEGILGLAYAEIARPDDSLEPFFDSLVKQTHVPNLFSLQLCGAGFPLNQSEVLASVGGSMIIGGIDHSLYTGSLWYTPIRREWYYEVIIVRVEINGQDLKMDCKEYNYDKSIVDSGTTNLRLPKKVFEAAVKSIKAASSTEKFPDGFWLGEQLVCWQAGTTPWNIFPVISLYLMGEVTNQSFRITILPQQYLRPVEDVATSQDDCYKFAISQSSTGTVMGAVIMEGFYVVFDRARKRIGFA

For the compound `CC[C@H](C)[C@@]1(NC(=O)COC)CCN([C@@H](CCc2ccccc2)C(=O)N[C@@H](CC(C)C)[C@H](O)CNCc2cccc(OC)c2)C1=O` [Example 5, (2S)-2-(3-((S)-sec-butyl)-3-(2-methoxy-acetylamino)-2-oxo-pyrrolidin-1-yl)-N—(S)-{1(R)-[1-hydroxy-2-(3-methoxy-benzylamino)-ethyl]-3-methyl-butyl}-4-phenyl-butyramide], the IC50 is 1000 to 50000 nM. Consider `CCC(=O)N[C@]1([C@@H](C)CC)CCN([C@@H](CCc2ccccc2)C(=O)N[C@@H](Cc2ccccc2)[C@H](O)CNCc2cccc(OC)c2)C1=O` [Example 10, (2S)-2-(3(S)-propionylamino-3-((S)-sec-butyl)-2-oxo-pyrrolidin-1-yl)-N-[(1S,2R)-1-benzyl-2-hydroxy-3-(3-methoxy-benzylamino)-propyl]-4-phenyl-butyramide], for which the IC50 was less than 100 nM. With `CC[C@H](C)[C@@]1(NC(=O)[C@@H](N)CCC(=O)O)CCN([C@@H](CCc2ccccc2)C(=O)N[C@@H](Cc2ccccc2)[C@H](O)CNCc2cccc(OC)c2)C1=O` [Example 8], the IC50 is less than 100 nM. With `CCNC(=O)N[C@]1([C@@H](C)CC)CCN([C@@H](CCc2ccccc2)C(=O)N[C@@H](Cc2ccccc2)[C@H](O)CNCc2cccc(OC)c2)C1=O` [Example 18, (2S)-2-(3(S)-ethylureido-3-((S)-sec-butyl)-2-oxo-pyrrolidin-1-yl)-N-[(1S,2R)-1-benzyl-2-hydroxy-3-(3-methoxy-benzylamino)-propyl]-4-phenyl-butyramide] the figure was less than 100 nM. As to `CCC(C)[C@@]1(NC(=O)CN)CCN([C@@H](CCc2ccccc2)C(=O)N[C@@H](Cc2ccccc2)[C@@H](O)CNCc2cccc(OC)c2)C1=O` (single isomer, unassigned) [Example 23], the IC50 lay within 1000 to 50000 nM. In the case of `COc1cccc(CNC[C@@H](O)[C@H](Cc2cc(F)cc(F)c2)NC(=O)[C@H](CCc2cccc(F)c2)N2CCC(CC3CC3)(NC(C)=O)C2=O)c1` (stereo in doubt) [Example 40, (2S)-2-(3(S)-acetylamino-3-(cyclopropylmethyl)-2-oxo-pyrrolidin-1-yl)-N-[(1S,2R)-1-(3,5-difluorobenzyl)-2-hydroxy-3-(3-methoxybenzylamino)-propyl]-4-(3-fluorophenyl)-butyramide], the IC50 was less than 100 nM. With `CCOC(=O)N[C@]1(C(C)CC)CCN([C@@H](CCc2ccccc2)C(=O)N[C@@H](Cc2ccccc2)[C@H](O)CNCc2cccc(OC)c2)C1=O` (single isomer, unassigned) [Example 14] the figure was less than 100 nM; with `CCC(C)[C@@]1(NC(=O)OC)CCN([C@@H](CCc2ccccc2)C(=O)N[C@@H](Cc2ccccc2)[C@@H](O)CNCc2cccc(OC)c2)C1=O` (single isomer, unassigned) [Example 15], 1000 to 50000 nM. For the compound `CC[C@H](C)[C@@]1(NC(=O)C(F)(F)F)CCN([C@@H](CCc2ccccc2)C(=O)N[C@@H](Cc2ccccc2)[C@H](O)CNCc2cccc(OC)c2)C1=O` [Example 19, (2S)-2-(3(S)-(trifluoroacetyl)amino-3-((S)-sec-butyl)-2-oxo-pyrrolidin-1-yl)-N-[(1S,2R)-1-benzyl-2-hydroxy-3-(3-methoxy-benzylamino)-propyl]-4-phenyl-butyramide], the IC50 lay in the range of 100 to 1000 nM. On to `CC[C@H](C)[C@@]1(NC(=O)COC)CCN([C@@H](CCc2ccccc2)C(=O)N[C@@H](Cc2ccccc2)[C@H](O)CNCc2cccc(OC)c2)C1=O` [Example 9, (2S)-2-(3(S)-(2-methoxy-acetylamino)-3-((S)-sec-butyl)-2-oxo-pyrrolidin-1-yl)-N-[(1S,2R)-1-benzyl-2-hydroxy-3-(3-methoxy-benzylamino)-propyl]-4-phenyl-butyramide], for which the IC50 is less than 100 nM. As to `CCCS(=O)(=O)N[C@]1(C(C)CC)CCN([C@@H](CCc2ccccc2)C(=O)N[C@@H](Cc2ccccc2)C(O)CNCc2cccc(OC)c2)C1=O` (stereo partly drawn) [Example 27, (2S)-2-(3(S)-(propylsulfonamido)-3-((S)-sec-butyl)-2-oxo-pyrrolidin-1-yl)-N-[(1S)-1-benzyl-2-hydroxy-3-(3-methoxy-benzylamino)-propyl]-4-phenyl-butyramide], the IC50 was 1000 to 50000 nM.

On to `CCCNC(=O)N[C@]1([C@@H](C)CC)CCN([C@@H](CCc2ccccc2)C(=O)N[C@@H](Cc2ccccc2)[C@H](O)CNCc2cccc(OC)c2)C1=O` [Example 17, (2S)-2-(3(S)-propylureido-3-((S)-sec-butyl)-2-oxo-pyrrolidin-1-yl)-N-[(1S,2R)-1-benzyl-2-hydroxy-3-(3-methoxy-benzylamino)-propyl]-4-phenyl-butyramide], for which the IC50 was 100 to 1000 nM. As for `CCC(C)[C@@]1(NC(=O)OC)CCN([C@@H](CCc2ccccc2)C(=O)N[C@@H](Cc2ccccc2)[C@H](O)CNCc2cccc(OC)c2)C1=O` (single isomer, unassigned) [Example 16], the IC50 is less than 100 nM. Take `CC(=O)N[C@]1(CC(C)C)CCN([C@@H](CCc2ccccc2)C(=O)N[C@@H](Cc2ccccc2)[C@H](O)CNCCC#N)C1=O` [Example 37, 2-(3(S)-Acetylamino-3(S)-isobutyl-2-oxo-pyrrolidin-1-yl)-N-[(1S,2R)-1-benzyl-3-(2-cyano-ethylamino)-2-hydroxy-propyl]-4-phenyl-butyramide]: the IC50 was less than 100 nM. Regarding `CCC(C)[C@@]1(NS(=O)(=O)CC)CCN([C@@H](CCc2ccccc2)C(=O)N[C@@H](Cc2ccccc2)C(O)CNCc2cccc(OC)c2)C1=O` (stereo partly drawn) [Example 26, (2S)-2-(3(S)-(ethylsulfonamido)-3-((S)-sec-butyl)-2-oxo-pyrrolidin-1-yl)-N-[(1S)-1-benzyl-2-hydroxy-3-(3-methoxy-benzylamino)-propyl]-4-phenyl-butyramide], the IC50 was 1000 to 50000 nM. For the compound `CC[C@H](C)[C@@]1(NC(=O)CCO)CCN([C@@H](CCc2ccccc2)C(=O)N[C@@H](Cc2ccccc2)[C@H](O)CNCc2cccc(OC)c2)C1=O` [Example 24, (2S)-2-(3(S)-(3-hydroxypropionylamino)-3-((S)-sec-butyl)-2-oxo-pyrrolidin-1-yl)-N-[(1S,2R)-1-benzyl-2-hydroxy-3-(3-methoxy-benzylamino)-propyl]-4-phenyl-butyramide], the IC50 was less than 100 nM.

As for `COc1cccc(CNC[C@@H](O)[C@H](Cc2cc(F)cc(F)c2)NC(=O)[C@H](CCc2ccc(F)cc2)N2CCC(CC3CC3)(NC(C)=O)C2=O)c1` (stereo in doubt) [Example 41, (2S)-2-(3(S)-acetylamino-3-(cyclopropylmethyl)-2-oxo-pyrrolidin-1-yl)-N-[(1S,2R)-1-(3,5-difluorobenzyl)-2-hydroxy-3-(3-methoxybenzylamino)-propyl]-4-(4-fluorophenyl)-butyramide], the IC50 is less than 100 nM. In the case of `CC(=O)N[C@]1(CC(C)C)CCN([C@@H](CCc2ccccc2)C(=O)N[C@@H](Cc2ccccc2)[C@H](O)CNCc2ccccc2)C1=O` [Example 35, 2-(3(S)-Acetylamino-3(S)-isobutyl-2-oxo-pyrrolidin-1-yl)-N-[(1S,2R)-1-benzyl-2-hydroxy-3-benzylamino-propyl]-4-phenyl-butyramide], the IC50 is less than 100 nM. Consider `CCOC(=O)N[C@]1([C@@H](C)CC)CCN([C@@H](CCc2ccccc2)C(=O)N[C@@H](Cc2ccccc2)[C@@H](O)CNCc2cccc(OC)c2)C1=O` [Example 13, (2S)-2-(3(S)-ethoxycarbonylamino-3-((S)-sec-butyl)-2-oxo-pyrrolidin-1-yl)-N-[(1S,2S)-1-benzyl-2-hydroxy-3-(3-methoxy-benzylamino)-propyl]-4-phenyl-butyramide], for which the IC50 is 1000 to 50000 nM. For `CC[C@H](C)[C@@]1(NC(C)=O)CCN([C@@H](CCc2ccccc2)C(=O)N[C@@H](Cc2ccccc2)[C@H](O)CNCc2cccc(Cl)c2)C1=O` [Example 29, (2S)-2-(3(S)-acetylamino-3-((S)-sec-butyl)-2-oxo-pyrrolidin-1-yl)-N-[(1S,2R)-1-benzyl-2-hydroxy-3-(3-chloro-benzylamino)-propyl]-4-phenyl-butyramide], the IC50 is less than 100 nM.

The IC50 is the point on the concentration scale where inhibition reaches its midpoint.
